Laboratory results from patent US10329276B2, “Salt and crystalline forms thereof of a drug” (AbbVie Inc., priority 2004, dated 2019).
≈ marks a conversion by molar mass, not a printed value.

Key:
Format in all cases: physicochemical
[1] = Solubility in different base solutions at 25° C. (free acid); details: for solubility: aqueous buffer
Experimental: Solubilities of 1-(6-amino-3,5-difluoropyridin-2-yl)-8-chloro-6-fluoro-1,4-dihydro-7-(3-hydroxyazetidin-1-yl)-4-oxo-3-quinolinecarboxylic acid in different base solutions at 25° C. are shown in TABLE 2.

[2] = Solubility in different buffered solutions at 25° C.
Experimental: Solubilities of 1-(6-amino-3,5-difluoropyridin-2-yl)-8-chloro-6-fluoro-1,4-dihydro-7-(3-hydroxyazetidin-1-yl)-4-oxo-3-quinolinecarboxylic acid in different buffered solutions at 25° C. are shown in TABLE 1.

[3] = Solubility of the trihydrate salt in different base solutions at 25° C.
Experimental: The solubility of D-glucitol, 1-deoxy-1-(methylamino)-, 1-(6-amino-3,5-difluoropyridin-2-yl)-8-chloro-6-fluoro-1,4-dihydro-7-(3-hydroxyazetidin-1-yl)-4-oxo-3-quinolinecarboxylate trihydrate (salt) in different base solutions at 25° C. is shown in TABLE 3.

[4] = 0.01M meglumine, final pH 9.00, 25° C.
[5] = 0.1M meglumine, final pH 9.83, 25° C.
[6] = 1M meglumine, final pH 10.85, 25° C.

Nc1nc(-n2cc(C(=O)O)c(=O)c3cc(F)c(N4CC(O)C4)c(Cl)c32)c(F)cc1F [1-(6-amino-3,5-difluoropyridin-2-yl)-8-chloro-6-fluoro-1,4-dihydro-7-(3-hydroxyazetidin-1-yl)-4-oxo-3-quinolinecarboxylic acid]
Ksp (M^2) ([1]; 0.5M KOH): 1.69 × 10^−2 M^2 | Swater ([1]; 0.5M KOH): 57.4 mg/mL | Ksp (M^2) ([1]; 1M L-arginine): 4.81 × 10^−4 M^2 | Swater ([1]; 1M L-arginine): 9.67 mg/mL | Ksp (M^2) ([1]; 1M NaOH): 1.66 × 10^−2 M^2 | Swater ([1]; 1M NaOH): 56.8 mg/mL | Ksp (M^2) ([1]; 1.0M TRIS): 1.619 × 10^−4 M^2 | Swater ([1]; 1.0M TRIS): 4.8 mg/mL | Ksp (M^2) ([1]; 1M ethanolamine): 2.04 × 10^−3 M^2 | Swater ([1]; 1M ethanolamine): 19.9 mg/mL | Ksp (M^2) ([1]; 1M meglumin): 2.81 × 10^−3 M^2 | Swater ([1]; 1M meglumin): 23.6 mg/mL | solubility ([1]; 0.5M KOH): 24400 µg/mL (≈ 55.4 mM) | solubility ([1]; 1M L-arginine): 11200 µg/mL (≈ 25.4 mM) | solubility ([1]; 1M NaOH): 8330 µg/mL (≈ 18.9 mM) | solubility ([1]; 1.0M TRIS): 5760 µg/mL (≈ 13.1 mM) | solubility ([1]; 1M ethanolamine): 24900 µg/mL (≈ 56.5 mM) | solubility ([1]; 1M meglumin): 32100 µg/mL (≈ 72.8 mM) | solubility ([2]; 0.1 HCl (printed 0.1 HC1), simulated gastric fluid, 0.1 HC1, final pH 0.8, 25° C.): 3.26 µg/mL (≈ 0.0074 mM) | solubility ([2]; aqueous buffer, 0.1M NaOH, final pH 8.4, 25° C.): 3400 µg/mL (≈ 7.71 mM) | solubility ([2]; aqueous buffer, Phosphate Buffer 8.0, final pH 7.8, 25° C.): 651 µg/mL (≈ 1.48 mM) | solubility ([2]; aqueous buffer, citrate buffer 4.0, final pH 4.2, 25° C.): 3.44 µg/mL (≈ 0.0078 mM) | solubility ([2]; aqueous buffer, citrate buffer 5.0, final pH 5.1, 25° C.): 3.33 µg/mL (≈ 0.00756 mM) | solubility ([2]; aqueous buffer, glycine buffer 9.0, final pH 8.2, 25° C.): 2490 µg/mL (≈ 5.65 mM) | solubility ([2]; aqueous buffer, phosphate buffer 6.8, final pH 6.8, 25° C.): 66.8 µg/mL (≈ 0.152 mM) | solubility ([2]; aqueous buffer, phosphate buffer 7.4, final pH 7.4, 25° C.): 283 µg/mL (≈ 0.642 mM) | solubility ([2]; organic solvent or mixture, ethanol, 25° C.): 867 µg/mL (≈ 1.97 mM) | solubility ([2]; saline or isotonic, saline, final pH 5.8-5.9, 25° C.): 13 µg/mL (≈ 0.0295 mM)

CNC[C@H](O)[C@@H](O)[C@H](O)[C@H](O)CO.Nc1nc(-n2cc(C(=O)O)c(=O)c3cc(F)c(N4CC(O)C4)c(Cl)c32)c(F)cc1F.O.O.O [D-glucitol, 1-deoxy-1-(methylamino)-, 1-(6-amino-3,5-difluoropyridin-2-yl)-8-chloro-6-fluoro-1,4-dihydro-7-(3-hydroxyazetidin-1-yl)-4-oxo-3-quinolinecarboxylate trihydrate (salt)]
Ksp (M^2) [3, 4]: 4.71 × 10^−3 M^2 | solubility [3, 4]: 32400 µg/mL | Ksp (M^2) [3, 5]: 4.16 × 10^−3 M^2 | solubility [3, 5]: 32200 µg/mL | Ksp (M^2) [3, 6]: 3.34 × 10^−3 M^2 | solubility [3, 6]: 30800 µg/mL | Ksp (M^2) ([3]; water, final pH 8.78, 25° C.): 5.00 × 10^−3 M^2 | solubility ([3]; water, final pH 8.78, 25° C.): 33900 µg/mL
